Data reported in the Kinase Knowledgebase extract (Sharma et al. 2016).

Legend:
[1] = biological target: MAPK14 (human) (UniProt Q16539); assay: Inhibition of TNF Production (PBMC)
[2] = biological target: MAPK14 (human) (UniProt Q16539); assay: Inhibition of TNF Production (U937 Cells)
[3] = biological target: MAPK14 (UniProt Q16539); assay: p38 alpha Inhibition
Chain of MAPK14 (Q16539 whole entry, looked up): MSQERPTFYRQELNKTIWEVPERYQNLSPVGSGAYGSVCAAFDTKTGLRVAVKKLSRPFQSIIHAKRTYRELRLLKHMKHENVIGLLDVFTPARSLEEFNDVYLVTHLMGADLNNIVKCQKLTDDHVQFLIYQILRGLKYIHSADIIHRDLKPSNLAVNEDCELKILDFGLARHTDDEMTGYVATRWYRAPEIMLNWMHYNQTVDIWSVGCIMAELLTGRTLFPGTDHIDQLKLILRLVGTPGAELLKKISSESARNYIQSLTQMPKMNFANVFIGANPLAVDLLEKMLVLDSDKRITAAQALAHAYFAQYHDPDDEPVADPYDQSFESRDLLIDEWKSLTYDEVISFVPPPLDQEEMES

Chain of MAPK14 (human) (Q16539 whole entry, looked up): as above

Compound	IC50 [1] [µM]	IC50 [2] [µM]	ID50 [1] [µM]	IC50 [3] [µM]
Cc1cccc(-n2nc(C)cc2-c2ccnc(N(C)C)c2)c1	3.4	10		
CCNc1cc(-c2ccncc2)n(-c2ccc(F)cc2)n1	> 10	10		
O=C(c1cnn(-c2ccc(F)cc2)c1-c1ccncc1)N1CCNCC1	> 10	10		
Cc1cccc(-n2nc(C)cc2-c2ccnc(N(C)Cc3ccccc3)c2)c1	> 10	10		
Cc1cnn(-c2cccc(F)c2)c1-c1ccncc1	4			
COC(=O)c1cnn(-c2ccc(F)cc2)c1-c1ccncc1		10		
Cc1ccc(-n2nc(C)cc2-c2ccnc(N(C)C)c2)cc1	> 10			
Cc1ccc(-n2nc(C)cc2-c2cccc(N)c2)cc1	> 10			
Cc1cc(-c2ccnc(NCCc3ccccc3)c2)n(-c2ccc(Cl)cc2)n1		0.86	0.1	
Cc1cc(-c2ccnc(Cl)c2)n(-c2cccc(F)c2)n1		> 10		
Cc1cccc(-n2nc(C)cc2-c2ccnc(OCc3ccccc3)c2)c1	> 10	2.64		
Fc1ccc(-n2ncc(N3CCNCC3)c2-c2ccncc2)cc1	> 10	10		
Cc1cnn(Cc2ccccc2)c1-c1ccncc1	> 10			
Cc1cccc(-n2nc(C)cc2-c2ccnc(C(N)=O)c2)c1	5			
O=C(O)c1cnn(-c2ccc(F)cc2)c1-c1ccncc1		10		
Fc1ccc(-n2nccc2-c2ccnc(NCCc3ccccc3)c2)cc1	10			
Cc1cccc(-n2nc(C)cc2-c2ccnc(S(C)(=O)=O)c2)c1	> 10			
Fc1ccc(-n2nccc2-c2ccnc(Cl)c2)cc1	8.1	10		
NC(=O)c1cnn(-c2ccc(F)cc2)c1-c1ccncc1	> 10	> 10		
Cc1ccc(-n2nc(C)cc2-c2ccnc(Cl)c2)cc1	2.9			
Cc1cc(-c2ccnc(C#N)c2)n(-c2ccc(F)cc2)n1	> 10	> 10		

The remaining lines, values ahead:

IC50 [1] [µM]	IC50 [2] [µM]	ID50 [1] [µM]	IC50 [3] [µM]	Compound
0.1	10			Cc1cnn(-c2ccc(F)cc2)c1-c1ccncc1
2.2				Cc1cc(-c2ccnc(N=[N+]=[N-])c2)n(-c2cccc(F)c2)n1
0.8				Cc1cccc(-n2nc(C)cc2-c2ccnc(N(C)CCc3ccccc3)c2)c1
0.3	0.2			Cc1cc(-c2ccnc(NCc3ccccc3)c2)n(-c2ccc(Cl)cc2)n1
0.1	0.21			Cc1cccc(-n2nc(C)cc2-c2ccnc(NCCO)c2)c1
0.2				Cc1ccc(-n2nc(C)cc2-c2ccnc(NCCO)c2)cc1
1.3	0.24			Fc1ccc(-n2nccc2-c2ccnc(NCc3ccccc3)c2)cc1
0.1	17.9			CNc1cc(-c2cc(C)nn2-c2ccc(C)cc2)ccn1
1.7	1.65			Cc1cccc(-n2nc(C)cc2-c2ccnc(C#N)c2)c1
1.1				Cc1ccc(-n2nc(C)cc2-c2ccnc(NCc3ccccc3)c2)cc1
2.4	10			Cc1cccc(-n2nc(C)cc2-c2cc[nH]c(=O)c2)c1
1.3	0.83		1.48	CCCc1cnn(-c2cccc(F)c2)c1-c1ccncc1
0.02	0.05			Cc1cccc(-n2nc(C)cc2-c2ccnc(NCCc3ccccc3)c2)c1
1.9	1.31			COc1cc(-c2cc(C)nn2-c2cccc(C)c2)ccn1
0.7	1.15		16.5	CCc1cnn(-c2cccc(F)c2)c1-c1ccncc1
0.6				Cc1cc(-c2ccnc(NCc3cccnc3)c2)n(-c2cccc(F)c2)n1
0.2	0.72			CCNc1cc(-c2cc(C)nn2-c2ccc(C)cc2)ccn1
0.6	0.66			Cc1cccc(-n2ncc(C)c2-c2ccncc2)c1
0.1	0.48			Cc1cc(-c2ccnc(NCCO)c2)n(-c2ccc(Cl)cc2)n1
0.5				Cc1cccc(-n2nc(C)cc2-c2ccnc(N)c2)c1
1.5				Cc1ccc(-n2nc(C)cc2-c2ccnc(NCc3cccnc3)c2)cc1
0.1				Cc1cccc(-n2nc(C)cc2-c2ccnc(NCc3ccccc3)c2)c1
